These results are taken from a melting point compilation (Tetko et al.; mined from patent text by program, amines drawn as free bases though some values may be those of a salt).

A value given as a limit tells only on which side of the number the result lay.

Take `Nc1ncc(-c2cccc(Cl)c2Cl)nc1C(=O)Nc1cccnc1`: the melting point was 239 to 241 °C.
As for `O=C(O)/C=C1\CCc2c(Cl)cc(F)cc21`, the figure is 229 to 230 °C.
For `CC1(C)CC(=O)C(SCc2ccc([N+](=O)[O-])cc2)=C(O)C1` the value was 140 to 142 °C.
For the compound `CC(C)Nc1cccnc1N1CCN(C(=O)c2ccc(C(=O)N[C@H](CO)C(C)C)cc2)CC1`, the melting point lay in the range of 82 to 83 °C.
For `C1=C(c2c[nH]c3ccccc23)CCN(CCc2csc3ccccc23)C1` the value was 195 to 198 °C.
`Cn1c(C(F)(F)F)cc(=O)n(-c2ccc3snc(C(=O)NS(N)(=O)=O)c3c2)c1=O` yielded a melting point of 221 °C.
The compound `CCC(O)c1ccc(Cl)c2nc3n(c12)CCCN3c1ccc(Cl)cc1Cl` (stereo not drawn) yielded a melting point of 233 to 235 °C.
For the compound `CCCCCCCCCCCCCCCCCCOCC(COP(=O)([O-])OCC[N+](C)(C)C)Oc1ccon1` (racemic), the melting point was in the range of 115 to 125 °C.
On to `O=C1OC(=O)c2cc3c(cc21)OCO3`, for which the melting point is 189 to 191 °C.
As for `COc1ccc2c(c1)N(CC1CN3CCC1CC3)c1ccccc1S2` (stereo not drawn), the figure is 135 to 136 °C.
As to `CC(C)(C)c1ccc(-c2ccc3c(c2)C=C(C(=O)O)CCS3(=O)=O)cc1`, the melting point was in the range of 289 to 291 °C.
With `Cc1cncc(CNC(=O)c2sc(N3CCN(CC(C)C)C3=O)nc2C)n1`, the melting point lay in the range of 139 to 142 °C.
For the compound `CN1CCN(C(=O)c2cc3c4ccccc4n(C)c3s2)CC1`, the melting point was 219 to 220 °C.
With `CCOC(=O)C1=C(C)NC(CF)=C(C(=O)OCC)C1c1ccccc1C(F)(F)F` (stereo not drawn), the melting point lay within 84 to 86 °C.
`OCc1cccc2c(-c3ccc(Br)cc3)nccc12` displayed a melting point of 226 °C.
As for `N#Cc1ccc2c(c1)ncn2-c1cccc(-c2cccnc2)c1`, the melting point lay in the range of 191 to 193 °C.
Regarding `COc1cc2c(cc1Br)CCOC2c1ccc([N+](=O)[O-])cc1` (stereo not drawn), the melting point lay in the range of 144 to 147 °C.
`COc1ccc(CC2NC(=O)NC2=O)cc1` (stereo not drawn) displayed a melting point of 174 °C.
For `CC(C)(C(=O)O)n1c(=O)[nH]c2cc(F)c(F)cc2c1=O` the value was 242 to 244 °C; for `COc1cc(C(=O)O)ccc1OCCCCl`, 154 to 156 °C.
On to `O=C(Cc1ccncc1)[N+]1([O-])CCC(C2c3ccc(Cl)cc3CCc3cccnc32)CC1` (stereo not drawn), for which the melting point lay in the range of 125 to 126 °C.
For `CC[C@@]12C[C@@](C)(O)[C@](O)(c3ccccc3)C[C@H]1CCc1cc(OCC(C)(C)O)ccc12` the value was 190 to 193 °C; for `Cc1ccc(Cl)c(Nc2ccccc2C(=O)NN)c1Cl`, 158 to 160 °C.
For `Cc1c(C)n(CC2CC2)c2c(OCc3ccccc3)nncc12` the value was 123 to 124 °C.
`O=C(O)COc1ccc([C@H]2c3ccc(O)cc3OC[C@H]2c2ccccc2)cc1` (racemic) came in with a melting point of 178 °C.
In turn, `CCCCCCNC(=O)OC1CCN(C(=O)Oc2ccc(Oc3ccc(OC)cc3)cc2)CC1` registered a melting point of 91 to 93 °C.
As for `C=CCOC(=O)/C=C/c1c[nH]c2ccc(OCc3ccccc3)cc12`, the figure is 73 to 77 °C; as for `COC(=O)c1cccc2c1c1c(O)c3c(cc1n2Cc1ccccc1)CCCC3`, 174 to 176 °C; as for `O=C(Nc1ccc(C(=O)N2CCCc3ccccc32)cc1)c1ccc(CO)cc1`, 224 to 226 °C.
On to `CC1COc2cccc([N+](=O)[O-])c2N1` (stereo not drawn), for which the melting point was determined as 60 °C.
Consider `O=C(Nc1cccnc1)NC(CS)Cc1ccccc1` (single isomer, unassigned; (+)), for which the melting point came to 149 °C.
For `Cc1nc(-c2ccc(C(F)(F)F)cc2)oc1COc1ccc(Cc2nn[nH]n2)cc1` the value was 208 °C.
Turning to `COc1ccc2c(c1)Oc1c(cccc1OCc1ccccc1)C2`, the melting point lay within 107 to 108 °C.
`COc1cc(N)c2c(c1)OC(C)C2` (stereo not drawn) came in with a melting point of 59 to 61 °C.
In turn, `COC(=O)c1cc2cc(OC)c(OC)cc2c(-c2ccncc2)c1C(=O)OC` yielded a melting point of 196 to 198 °C.
As for `CC(C)N(O)C(=O)c1c([Si](C)(C)C)sc2ccccc12`, the figure is 115 to 118 °C; as for `CCC(=CC(CNC(=O)Cc1cccnc1)=NO)C(C)[N+](=O)[O-]` (stereo not drawn), 123 to 125 °C.
Turning to `C#CCN(Cc1cc2c(=O)n(CCN(C)C)c(CN3CCCCC3)nc2cc1Cl)c1ccc(C(=O)NCc2cccnc2)cc1`, the melting point lay in the range of 90 to 93 °C.
For `Fc1cccc(CCc2nnc(-c3ccnc4[nH]ccc34)o2)c1` the value was 147 to 148 °C; for `O=C1CN(Cc2ccccc2)c2cc(Br)ccc2N1`, 174 to 176 °C.
On to `COc1ccc(NC(=O)OC2CN3CCC2CC3)cc1` (stereo not drawn), for which the melting point was 160 °C.
For `Cc1ccc(S(=O)(=O)OCC2OC(n3ccc(=O)[nH]c3=O)CC2O)cc1` (stereo not drawn), the melting point came to 162 °C.
As for `CCCCC(NC(=O)C1CC1(C)C)C(=O)OC(C)(C)C` (racemic), the figure is 52 to 65 °C; as for `CCCc1nc(C)n2nc(SC)nc2c1Cc1ccc([N+](=O)[O-])cc1`, 130 °C; as for `Cc1cc(C(=S)NCc2ccc(Br)cc2F)c(OCC(=O)O)cc1F`, 162 to 164 °C.
For `O=C(O)c1ccc(-c2cc([N+](=O)[O-])ccc2F)cc1` the value was greater than 280 °C.
The compound `CCCOC(C)c1cccc2[nH]c3cnc(C(=O)OCC)c(COC)c3c12` (stereo not drawn) returned a melting point of 127 to 130 °C.
Consider `C=CC1(CC(=O)O)CC(C)(C)CC(C)(C)C1`, for which the melting point is 92 to 94 °C.
The compound `O=C(CCS(=O)C(c1ccccc1)c1ccccc1)NO` (stereo not drawn) had a melting point of 159 to 160 °C.
As for `COc1ccc2[nH]cc(S(=O)(=O)c3ccccc3)c2n1`, the figure is 223 to 225 °C; as for `C#CCc1c(C)nc2c(OCc3ccccc3)cccn12`, 112 °C; as for `O=C(O)[C@@H]1CCCN1Cc1cc2cc3c(cc2c2cc(O)ccc12)OCO3`, 205 to 206 °C.
For `O=C(C(=O)c1ccc(C(F)(F)F)cc1)c1ccc(C(F)(F)F)cc1` the value was 141 to 142 °C; for `CC(=O)OCC(=O)C1(O)C(C)CC2C3CC(C)C4=CC(=O)C=CC4(C)C3=CCC21C` (stereo not drawn), 215 to 216 °C.
As for `CCN(CC)CCCC1CCCN(C(=O)N2c3ccccc3NC(=O)c3csc(C)c32)C1` (stereo not drawn), the figure is 136 to 138 °C.
The compound `Cc1ccccc1NC(=O)c1ccccc1[Si](C)(C)C` registered a melting point of 117 to 119 °C.
As for `CN(C(=O)c1cccc(C(=C2CC3CCC(C2)N3C)c2ccccc2)c1)c1cccc(F)c1`, the figure is 122 to 125 °C; as for `CSc1nnc(C2CCCCC2)c(=O)n1C`, 84 to 88 °C; as for `CC1(c2n[nH]c(=O)o2)CC1`, 68 to 70 °C.
Compound `O=c1c(CCCc2ccoc2)cc2cccnc2n1-c1cccc([N+](=O)[O-])c1` returned a melting point of 185 to 186 °C.
`CCOC(=O)C(C)(C)OC1(CCCNC(=O)c2cc(Cl)ccc2OC)C=CC(c2ccccc2)=CC1` (stereo not drawn): the melting point is less than 20 °C.
With `CC(=O)N1C(=O)OC[C@@H]1Cc1ccccc1`, the melting point stood at 106 °C.
As for `Cc1cc(C)n(-c2ccc(N3CCOCC3)nn2)n1`, the figure is 119 to 121 °C; as for `CCCCCCCCCCCCCCCCOCC(COC(c1ccccc1)(c1ccccc1)c1ccccc1)COS(C)(=O)=O` (stereo not drawn), 39 °C; as for `Cc1cc2c(c(C)c1Br)C(c1ccccc1)CO2` (stereo not drawn), 135 to 136 °C.
As for `Fc1cc(-c2nc3ccccc3o2)ccc1CBr`, the melting point was in the range of 150 to 152 °C.
`O=[N+]([O-])c1ccc(OS(=O)(=O)c2cccnc2Cl)cc1` yielded a melting point of 127 to 128 °C.
For the compound `NS(=O)(=O)c1cc2cc(P(=O)(O)O)c(=O)[nH]c2cc1C(F)(F)F`, the melting point lay within 240 to 244 °C.
For `CCOCc1nc2c(N)nc3cc(-c4cccc(C(=O)N5CCOCC5)c4)ccc3c2n1CC(C)(C)O` the value was 152 to 154 °C; for `N=C(N)c1ccc(-n2ncn(-c3ccc(CCC(=O)O)cc3)c2=O)cc1`, 310 to 313 °C.
For `COC(=O)C(C#N)=CC=Cc1cc([N+](=O)[O-])ccc1Cl` the value was 193 to 194 °C; for `CCCSc1nc(-c2ccc(C#N)cc2)cn1-c1ccc(C#N)cc1`, 117 to 122 °C; for `O=c1cc(COC2CCCCO2)occ1O` (stereo not drawn), 94 °C.
As for `COC(=O)c1ccc(NC(=O)c2cc(C(C)C)c(C(C)C)s2)cn1`, the figure is 207 to 208 °C.
In the case of `CNS(=O)(=O)c1cnc2c(OC)c(OC)c(OC)cc2c1O`, the melting point was in the range of 254 to 255 °C.
For `O=C1CC2CCSc3ccccc3C2=NN1c1ccccc1` (stereo not drawn) the value was 138 to 140 °C.
In turn, `CC(=O)c1nc(C)c[nH]1` returned a melting point of 113 to 115 °C.
As for `Cc1ccccc1-n1c(-c2sc(Nc3ccccc3)nc2-c2ccccc2)nc2ccccc2c1=O`, the figure is 141 to 143 °C.
`CC(C)(C)OC(=O)Nc1ccc(-c2cccc(F)c2)cc1[N+](=O)[O-]` returned a melting point of 93 to 96 °C.
As for `CCOC(=O)c1c(C)cc2c(c1C)c(=O)n(-c1ccccc1C(F)(F)F)c(=O)n2CCN1CCCCC1`, the figure is 144 to 145 °C; as for `O=c1c(CCCc2ccncc2)cc2cccnc2n1-c1cccc([N+](=O)[O-])c1`, 209 to 210 °C.
For `Cc1ccc(N2C(=O)C(O)=C(C(=O)c3ccc(OC(F)(F)F)cc3)C2c2ccc(C(C)C)cc2)nn1` (stereo not drawn) the value was 269 °C; for `Cc1c(C)c(N2C(=O)c3cc(Cl)c(Cl)cc3C2=O)c(C)c2c1OC(C)(C)C2c1ccc(F)cc1` (stereo not drawn), 232 to 233 °C.
For `CCCCCCCCCCCCCCOc1ccccc1C(=O)N(CC)CC` the value was 31 to 32 °C; for `O=C1Nc2cc(C(F)(F)F)ccc2N2CCN(CCc3ccncc3)CC12` (stereo not drawn), 204 to 206 °C; for `CCOC(=O)c1cnn(-c2ccc(OC)cc2)c1Cl`, 100 to 101 °C.
`Cc1ccc(OCc2ccccc2)c(C(=O)O)c1C(=O)O` gave a melting point of 200 to 203 °C.
As for `CC(=O)OCCC(=C(c1ccccc1)c1ccccc1)c1ccccc1`, the figure is 81 to 83 °C.
